Experimental data from patent US20140030808A1, “Method for Cellular RNA Expression” (BIONTECH AG, priority 2010, published 2014).

Columns and labels:
[1] = test system: Primary human foreskin fibroblasts (CCD1079SK); test: Induction of type-I interferon transcripts (qRT-PCR) after IVT RNA electroporation; type: cell-based; details: 2 μM C13H8N4OS
Description: Primary human foreskin fibroblasts (CCD1079SK) were electroporated with 1 μg IVT RNA encoding for firefly luciferase and 5 μg IVT RNA encoding for destabilized GFP (luc+GFP). The cells were either left untreated or incubated with 2 μM C13H8N4OS (PKR-inhibitor). Upregulation of interferon-alpha and interferon-betatranscripts in human fibroblasts induced by RNA electroporation was observed (FIGS. 1A and 1C).
(§1) Total cellular RNA was extracted from cells with RNeasy Mini Kit or RNeasy Micro Kit (Qiagen, Hilden, Germany), reverse transcribed with oligo-dT18 using Superscript II (Invitrogen, Carlsbad, Calif., USA), and subjected to real-time quantitative analysis on ABI PRISM 7700 Sequence Detection System instrument and software (Applied Biosystems, Foster City, Calif., USA) using the QuantiTect SYBR Green PCR Kit (Qiagen). Reactions were performed in triplicates with primer amplifying a specific region of the codon optimized
Primary human foreskin fibroblasts (CCD1079SK) were electroporated with 1 μg IVT RNA encoding for firefly luciferase and 5 μg IVT RNA encoding for destabilized GFP (luc+GFP). Electroporations were performed in 2 mm gap cuvettes using optimized parameters. The cells were plated in 6-well-plates at a density of 300000 cells/well and either left untreated or incubated with 2 μM C13H8N4OS (PKR-inhibitor). 24 h later cells were harvested for total RNA extraction and reverse transcription. The induction of type-I interferons was assessed by qRT-PCR using specific primer for IFNα or IFNβ in the presence or absence of PKR-inhibitor as indicated in FIG. 1. Panels A and C show the same samples as B and D with reduced values of the y-axis.

CCD1079SK fibroblasts = test: Induction of pluripotency marker genes (qRT-PCR); type: cell-based, human; details: 2 μM, 72 h after electroporation
Description: CCD1079SK fibroblasts were either mock electroporated or electroporated with IVT RNA encoding for firefly luciferase (1 μg), eGFP (1.25 μg), SV40 Large T (1.25 μg), HPV16-E6 (1.25 μg), OCT4, SOX2, KLF4, cMYC, NANOG and LIN28 (2.5 μg OCT4 and equimolar amounts for the others). Electroporations were performed in 2 mm gap cuvettes using optimized parameters for CCDs. The cells were plated into 6-well-plates at a density of 250000 cells/well and either left untreated or incubated with 2 μM C13H8N4OS as indicated. […] GDF3 and hTERT induction was increased by the treatment 72 h after electroporation.
as §1
A direct consequence of reprogramming transcription factor expression is the induction of pluripotency marker genes at the transcriptional level. […]

[2] = test system: Primary human foreskin fibroblasts (BJ, CCD1079Sk); test: GFP expression by flow cytometry (MFI) in fibroblasts electroporated with IVT RNA; type: cell-based
Description: (§2) (AB) Primary human foreskin fibroblasts from different donors and suppliers (panel A: BJ fibroblasts; panel B CCD1079Sk) and (C) MEFs were electroporated with 0.5 μg IVT RNA encoding for firefly luciferase and 1.25 μg IVT RNA encoding for enhanced GFP (eGFP). The cells were plated into […] at a density of 250000 cells/well. The cells were either left untreated or incubated with increasing amounts of C13H8N4OS (PKR-inhibitor) ranging from 0.5 μM to 2 μM as indicated in the panel legends. GFP expression was measured by flow cytometry at the indicated time points. The mean fluorescence intensity (MFI) of the transfected GFP-positive cell fractions is shown.
(§3) Transfer of IVT-RNA into cells was performed by electroporation (EP). […]
(§4) For quantification of d2eGFP and eGFP protein, cells were washed in PBS, fixed using PBS supplemented with 2% formaldehyde and analyzed by flow cytometry on a FACS Canto II flow cytometer (BD Biosciences, Heidelberg, Germany). Gating was performed on living cells and mean fluorescence intensity (MFI) of GFP expressing cell populations was quantified using FlowJo software (Tree Star, Ashland, Oreg., USA). […] Gating was performed on living CD4+ and CD8+ T-cells and GFP expression and MFI of both T-cell subpopulations was determined by flow cytometry. […]

MEFs = test: GFP expression by flow cytometry (MFI) in murine fibroblasts electroporated with IVT RNA; type: cell-based; details: 0.5 μM to 2 μM, mouse fibroblasts
Description: as §2, §3, §4

[3] = test system: Primary human foreskin fibroblasts (HFF); type: cell-based; details: 24 h supernatants
[4] = test system: Human primary CD4 and CD8 positive T-cells; type: cell-based; details: 0.5 μM to 2 μM

Q: With `O=C1Nc2ccc3ncsc3c2/C1=C/c1c[nH]cn1` [C13H8N4OS, 6,8-dihydro-8-(1H-imidazol-5-ylmethylene)-7H-pyrrolo[2,3-g]benzothiazol-7-one] as the compound, how does the IFN-α transcript induction ([1]; 24 h, with or without RNA) read?
A: induced even in the absence of RNA

Q: And the IFN-β transcript induction ([1]; 24 h, with or without RNA)?
A: only in the presence of RNA

Q: And the “interferon transcripts (IFNα, IFNβ; qRT-PCR)” value ([1]; 24 h after electroporation with luc+GFP IVT RNA, vs untreated)?
A: overwhelming increase

Q: What about the “GDF3 induction (qRT-PCR)” value (CCD1079SK fibroblasts) of the same compound?
A: increased

Q: And the “hTERT induction (qRT-PCR)” value (CCD1079SK fibroblasts)?
A: increased

Q: And the “GFP expression (MFI)” value ([2]; 0.5 μM to 2 μM, human fibroblasts)?
A: dose dependent increase

Q: And the “stabilization of GFP expression” value ([2]; highest concentration used (2 μM))?
A: high level of stabilization

Q: And the “GFP expression (MFI)” value (MEFs)?
A: dose dependent increase

Q: What about the “secretion of IFNβ” value ([3]; 2 μM C13H8N4OS, HFF electroporated with eGFP IVT RNA) of the same compound?
A: remarkably enhanced

Q: And the “secretion of IFNα” value ([3]; HFF, with or without 2 μM C13H8N4OS)?
A: not observed

Q: And the “GFP expression (MFI)” value [4]?
A: Neither in T-cells nor in iDCs PKR inhibition led to an increased GFP expression
